PMC11056982, “Paraptotic Cell Death as an Unprecedented Mode of Action Observed for New Bipyridine-Silver(I) Compounds Bearing Phosphane Coligands” (Journal of Medicinal Chemistry, 2024)

Columns and labels:
[1] = test system: SK-OV-3/CBP; test: MTT viability assay in carboplatin-resistant SK-OV-3/CBP cells; format: cell-based, human; settings: 72 h; resistant subline vs parental line
Experimental: (§1) Cells were seeded (2 × 10^4 cells/well for HCT116, HCT116/OxR, 3 × 10^4 cells/well for HCT116 p53KO, 4 × 10^4 cells/well for MES-OV, SK-OV-3, and their respective CBP resistant counterparts) in 100 μL/well in 96-well plates and allowed to attach for 24 h at 37 °C and 5% CO2. Compounds were first dissolved in DMSO to a 10 mM stock solution and then further diluted in a growth medium (DMSO concentration <1%). After 24 h, cells were treated with 100 μL of different drugs dilutions in triplicates with the final concentrations of 0, 0.01, 0.05, 0.075, 0.1, 0.5, 0.75, 1, 2.5, 5, 7.5, and 10 μM depending on the compound and the cell line.

[2] = test system: MES-OV/CBP; test: MTT viability assay in carboplatin-resistant MES-OV/CBP cells; format: cell-based, human; settings: 72 h; resistant subline vs parental line
Experimental: as §1

[3] = test system: HCT116 WT/OxR; test: MTT viability assay in oxaliplatin-resistant HCT116 WT/OxR cells; format: cell-based, human; settings: 72 h; resistant subline vs parental line
Experimental: as §1

[4] = biological target: T1, recombinant rat TrxR (Rattus norvegicus, UniProt O89049); test: Inhibition of mammalian TrxR (microplate reader-based DTNB assay); format: biochemical; settings: cell-free assay
T1 construct: purchased Cayman Chemical
T1 sequence (O89049 1-499): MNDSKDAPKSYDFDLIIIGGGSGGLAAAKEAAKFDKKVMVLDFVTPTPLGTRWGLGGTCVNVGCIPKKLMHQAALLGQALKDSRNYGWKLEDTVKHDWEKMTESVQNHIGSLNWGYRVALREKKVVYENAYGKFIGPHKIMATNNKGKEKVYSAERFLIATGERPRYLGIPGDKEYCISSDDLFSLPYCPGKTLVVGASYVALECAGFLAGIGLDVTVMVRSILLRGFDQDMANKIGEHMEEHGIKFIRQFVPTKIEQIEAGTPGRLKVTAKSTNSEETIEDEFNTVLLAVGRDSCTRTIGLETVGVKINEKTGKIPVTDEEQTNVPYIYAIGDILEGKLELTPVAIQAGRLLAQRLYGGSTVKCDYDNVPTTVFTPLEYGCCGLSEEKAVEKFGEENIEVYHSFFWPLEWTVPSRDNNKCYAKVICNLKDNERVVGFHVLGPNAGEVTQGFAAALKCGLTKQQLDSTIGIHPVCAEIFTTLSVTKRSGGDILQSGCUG
Experimental: To determine the inhibition of mammalian TrxR, an established microplate reader-based assay was performed. For this purpose, commercially available recombinant rat TrxR (from Cayman Chemical) was used and diluted with distilled water to achieve a concentration of 0.12 U mL^–1. The compounds were freshly dissolved as stock solutions in DMSO. Aliquots (25 μL) of the enzyme solution and 25 μL of potassium phosphate buffer (pH 7.0) containing the compounds in graded concentrations (1% DMSO) were mixed. Positive controls were composed of 25 μL aliquots of the enzyme solution mixed with 25 μL 1% DMSO in buffer solution (no compounds). The final concentration of DMSO was 0.5% v/v in all samples. The blank solution was the highest used concentration of the compound in 0.5% DMSO in buffer solution (no enzyme). All resulting solutions were incubated with moderate shaking for 75 min at 37 °C in a 96-well plate. […] After proper mixing, the formation of 2-nitro-5-thiobenzoate (5-TNB) was monitored with a microplate reader at 405 nm 10 times in 35 s intervals for about 6 min. The increase in 5-TNB concentration over time followed a linear trend, and the enzymatic activities were calculated as the slopes (increase in absorbance per second) thereof. […] For the absorption measurements in the enzyme assay, a PerkinElmer 2030 Multilabel Reader VICTORTMX4 was used.

[5] = test system: MES-OV cells; test: Mitochondrial membrane potential by JC-1 stain (flow cytometry); format: cell-based, human; settings: 24 h, 10 μM
Experimental: (§2) Cells were seeded in a density of (2–4) × 10^5 cells/well in six-well plates and in 1 mL culture medium containing 10% FBS. After 24 h recovery, cells were treated with the indicated compounds and concentrations. Next, the supernatant was collected followed by trypsinization of the cells and centrifugation at 300g for 5 min. In the following protocols, cells were stained with annexin V (AV) and propidium iodide (PI) for cell death analysis, with only PI for cell cycle analysis, or with 10 μg mL^–1 JC-1 for evaluation of the mitochondrial membrane potential as previously described.[54],[55]

[6] = test system: MES-OV cells; test: ROS detection by DCF-DA flow cytometry in MES-OV; format: cell-based, human; settings: 24 h
Experimental: Cells were seeded 5 × 10^5 cells/mL in six-well plates. After 24 h treatment with the indicated concentration, cells were incubated with 10 μM 2′,7′-dichlorofluorescein diacetate (DCFH-DA, Sigma-Aldrich) in Hank’s balanced salt solution for 1 h at 37 °C. Subsequently, flow cytometry (with BD LSR Fortessa instrument, BD Biosciences, Franklin Lakes, NJ, USA) was performed to measure the median fluorescence signal of 20,000 single cells per sample. FlowJo (BD Biosciences, San Jose, CA, USA) and GraphPad Prism software (GraphPad Software Inc., San Diego, CA, USA) were to analyze the data.

[7] = test system: SK-OV-3; test: Cell death by annexin V/propidium iodide stain (flow cytometry); format: cell-based, human; settings: SK-OV-3, 10 μM, 24 h
Experimental: as §2

[8] = Stability in PBS by LC-ESI(+)-HRMS/MS; format: physicochemical; settings: 80 μM in PBS, monitored 48 h
Experimental: For the stability evaluation in PBS, 10 mM solutions of complexes 1, 4, and 7 were first prepared in DMSO. Two microliters of this solution were then added to PBS (250 μL) for a total concentration of 80 μM. Following centrifugation for 10 min at 3000 rpm, the resulting solutions were monitored by LC-ESI(+)-MS and LC-ESI(+)-HRMS for a period of 48 h.

[9] = test system: MES-OV cells; test: TEM analysis of subcellular morphology; format: cell-based, human; settings: 24 h treatment
Experimental: MES-OV Cells were seeded (8 × 10^5 cells/mL) in […] in six-well plates. After 24 h, cells were treated with the selected compounds at the indicated concentration for another 24 h. Afterward, cells were collected, pelleted, and fixed in a solution of 2.5% glutaraldehyde and 2% paraformaldehyde in 0.1 M cacodylate buffer (pH 7.4) for 2 h at room temperature. Samples were subsequently washed 3 × 10 min in cacodylate buffer and postfixed in 1% osmium tetroxide for 1 h. After 3 × 10 min washing in cacodylate buffer, samples were dehydrated in an ethanol series (30–100%, 10 min each) and pure acetone (2 × 10 min) and gradually embedded in Epon 812 resin (Serva). Sections (40–50 nm) were prepared with a Leica UC7 ultramicrotome, mounted on copper mesh grids, and contrasted with 1% uranyl acetate (7 min) and 3% lead citrate (3 min). Imaging was performed with a Tecnai G2 20 transmission electron microscope at 80 kV equipped with an FEI Eagle 4K CCD camera (Center for Anatomy and Cell Biology). Image processing was performed in Fiji[57] using the CLAHE filter (enhance local contrast).

[10] = test system: MES-OV cells; test: Phase-contrast microscopy of cytoplasmic vacuoles; format: cell-based, human; settings: 6 and 24 h treatment
Experimental: Cells were seeded 5 × 10^5/well in six-well plates after 24 h recovery treatment with compounds 1, 4, and 7 was performed with the indicated concentrations. After 6 and 24 h, phase-contrast images of the cells were taken with a Zeiss Primovert microscope (20× magnification). To determinate the percentage of vacuolated cells, images (three images each condition) were analyzed by ImageJ, and vacuolated cells were counted.

[11] = test system: SK-OV-3 and MES-OV cells; test: Cell cycle distribution (PI stain, flow cytometry); format: cell-based, human; settings: 10 μM, 24 h
Experimental: as §2

SMILES: O=S(=O)([O-])C(F)(F)F.[Ag+].c1ccc(-c2ccccn2)nc1.c1ccc(P(c2ccccc2)c2ccccc2)cc1 [Compound 1, [Ag(2,2′-bipy)(PPh3)][CF3SO3]]
- relative resistance (IC50 SK-OV-3/CBP divided by IC50 SK-OV-3) [1]: 1.6^n.s.
- relative resistance (IC50 MES-OV/CBP divided by IC50 MES-OV) [2]: 1.0^n.s.
- relative resistance (IC50 HCT116 WT/OxR divided by IC50 HCT116 WT) [3]: 0.7^n.s.
- TrxR inhibition strength relative to 7 [4]: 10 fold
- cells with mitochondrial depolarization (low Δψ fraction) [5]: 50%
- ROS levels (in words) [6]: significant and very strong elevation in ROS was found only in the 10 μM sample
- apoptosis induction (AV/PI) [7]: up to 100%
- stability in PBS [8]: an equilibrium is established between the parent complex and AgP2 and AgN2 species
- vacuole diameter (TEM) [9]: 300–500 nm
- cytoplasmic vacuole formation (phase contrast) [10]: distinctly fewer vesicles of smaller and distinctive shapes
- cell cycle distribution change [11]: significant shift from the G0–G1 phase to the S phase
